Assay: xn = mol fraction of the nth substance listed

C1CCCCC1 + c1ccccc1
Settings | viscosity [mPa·s]
293.15 K, 101 kPa, x2 = 0.094 | 0.893
293.15 K, 101 kPa, x2 = 0.251 | 0.762
293.15 K, 101 kPa, x2 = 0.418 | 0.684
293.15 K, 101 kPa, x2 = 0.582 | 0.649
293.15 K, 101 kPa, x2 = 0.736 | 0.628
293.15 K, 101 kPa, x2 = 0.891 | 0.636
293.15 K, 101.32 kPa, x1 = 0.069 | 0.634
293.15 K, 101.33 kPa, x1 = 0.4 | 0.6789
293.65 K, 101.33 kPa, x1 = 0.1 | 0.6528
293.85 K, 101.33 kPa, x1 = 0.3 | 0.6581
294.35 K, 101.33 kPa, x1 = 0.7 | 0.7579
294.55 K, 101.33 kPa, x1 = 0.85 | 0.8416
294.85 K, 101.33 kPa, x1 = 0.6 | 0.7104
296.05 K, 101.33 kPa, x1 = 0.2 | 0.631
298 K, 101 kPa, x1 = 0.077 | 0.654
298 K, 101 kPa, x1 = 0.1226 | 0.654
298 K, 101 kPa, x1 = 0.1659 | 0.657
298 K, 101 kPa, x1 = 0.1692 | 0.66
298 K, 101 kPa, x1 = 0.2368 | 0.665
298 K, 101 kPa, x1 = 0.2613 | 0.669
298 K, 101 kPa, x1 = 0.2942 | 0.678
298 K, 101 kPa, x1 = 0.2951 | 0.674
298 K, 101 kPa, x1 = 0.6686 | 0.787
298.1 K, 101 kPa, x1 = 0.2 | 0.581
298.1 K, 101 kPa, x1 = 0.4 | 0.588
298.1 K, 101 kPa, x1 = 0.5 | 0.606
298.1 K, 101 kPa, x1 = 0.6 | 0.629
298.1 K, 101 kPa, x1 = 0.8 | 0.702
298.15 K, 100 kPa, x2 = 0.2504 | 0.7321
298.15 K, 100 kPa, x2 = 0.4997 | 0.6299
298.15 K, 100 kPa, x2 = 0.7497 | 0.575
298.15 K, 101 kPa, x1 = 0.0407 | 0.5938
298.15 K, 101 kPa, x1 = 0.0977 | 0.5871
298.15 K, 101 kPa, x1 = 0.1489 | 0.5839
298.15 K, 101 kPa, x1 = 0.1991 | 0.581
298.15 K, 101 kPa, x1 = 0.2609 | 0.5691
298.15 K, 101 kPa, x1 = 0.3011 | 0.5852
298.15 K, 101 kPa, x1 = 0.3095 | 0.574
298.15 K, 101 kPa, x1 = 0.3586 | 0.5843
298.15 K, 101 kPa, x1 = 0.3991 | 0.5953
298.15 K, 101 kPa, x1 = 0.4089 | 0.5884
298.15 K, 101 kPa, x1 = 0.4513 | 0.6073
298.15 K, 101 kPa, x1 = 0.4887 | 0.5861
298.15 K, 101 kPa, x1 = 0.4987 | 0.6127
298.15 K, 101 kPa, x1 = 0.5798 | 0.6263
298.15 K, 101 kPa, x1 = 0.5965 | 0.6256
298.15 K, 101 kPa, x1 = 0.6017 | 0.6403
298.15 K, 101 kPa, x1 = 0.6481 | 0.6489
298.15 K, 101 kPa, x1 = 0.6986 | 0.6783
298.15 K, 101 kPa, x1 = 0.7128 | 0.6954
298.15 K, 101 kPa, x1 = 0.8006 | 0.7301
298.15 K, 101 kPa, x1 = 0.8959 | 0.7929
298.15 K, 101 kPa, x1 = 0.9313 | 0.8219
298.15 K, 101 kPa, x1 = 0.9638 | 0.8484
298.15 K, 101 kPa, x2 = 0.0136 | 0.8732
298.15 K, 101 kPa, x2 = 0.1 | 0.7978
298.15 K, 101 kPa, x2 = 0.1043 | 0.8022
298.15 K, 101 kPa, x2 = 0.2 | 0.734
298.15 K, 101 kPa, x2 = 0.2011 | 0.7423
298.15 K, 101 kPa, x2 = 0.203 | 0.7292
298.15 K, 101 kPa, x2 = 0.2438 | 0.7115
298.15 K, 101 kPa, x2 = 0.3015 | 0.6869
298.15 K, 101 kPa, x2 = 0.31 | 0.6772
298.15 K, 101 kPa, x2 = 0.4 | 0.641
298.15 K, 101 kPa, x2 = 0.4038 | 0.6514
298.15 K, 101 kPa, x2 = 0.441 | 0.6283
298.15 K, 101 kPa, x2 = 0.5005 | 0.6313
298.15 K, 101 kPa, x2 = 0.549 | 0.6011
298.15 K, 101 kPa, x2 = 0.6 | 0.593
298.15 K, 101 kPa, x2 = 0.6032 | 0.6107
298.15 K, 101 kPa, x2 = 0.611 | 0.595
298.15 K, 101 kPa, x2 = 0.7006 | 0.5985
298.15 K, 101 kPa, x2 = 0.733 | 0.5877
298.15 K, 101 kPa, x2 = 0.7848 | 0.574
298.15 K, 101 kPa, x2 = 0.7996 | 0.6
298.15 K, 101 kPa, x2 = 0.8 | 0.587
298.15 K, 101 kPa, x2 = 0.883 | 0.5923
298.15 K, 101 kPa, x2 = 0.9011 | 0.609
298.15 K, 101.33 kPa, x1 = 0.0984 | 0.582
298.15 K, 101.33 kPa, x1 = 0.1986 | 0.576
298.15 K, 101.33 kPa, x1 = 0.3009 | 0.579
298.15 K, 101.33 kPa, x1 = 0.4008 | 0.589
298.15 K, 101.33 kPa, x1 = 0.4989 | 0.609
298.15 K, 101.33 kPa, x1 = 0.552 | 0.623
298.15 K, 101.33 kPa, x1 = 0.6007 | 0.639
298.15 K, 101.33 kPa, x1 = 0.6478 | 0.653
298.15 K, 101.33 kPa, x1 = 0.7475 | 0.699
298.15 K, 101.33 kPa, x1 = 0.8011 | 0.733
298.15 K, 101.33 kPa, x1 = 0.9022 | 0.803
298.15 K, 101.33 kPa, x2 = 0.1282 | 0.7622
